Data taken from patent US8912173B2, “Substituted quinolines and their use as medicaments” (Boehringer Ingelheim International GmbH, priority 2011, dated 2014).

System: patients with ITP
Assay: not given
Conditions: single center open label study; cited from earlier work

Structure (SMILES)	platelet counts
COc1cc(Nc2ncc(F)c(Nc3ccc4c(n3)N(COP(=O)(O)O)C(=O)C(C)(C)O4)n2)cc(OC)c1OC [Example R788]	improved platelet counts

Target: Recombinant human Syk (amino acids 342-635), GST-Syk kinase fusion protein (Homo sapiens (Human), UniProt P43405)
Assay: Syk Kinase Test (Kinase Glo Luminescence Kinase test)
Conditions: read-out: IC50-value (+0.2% BSA in μM); +0.2% BSA
Experimental: The catalytic activity of the GST-Syk kinase fusion protein was determined using the Kinase Glo® Luminescence Kinase test (Promega; V6712). In this homogeneous test the amount of ATP remaining after the kinase reaction is quantified by a luciferin-luciferase reaction using luminescence. The luminescence signal obtained correlates with the amount of ATP still present and thus correlates inversely with the activity of the protein kinase.
GST-Syk was diluted to 6.0 nM in the test buffer and 10 μl of this dilution were used in the kinase test (final concentration of Syk=4 nM in a total volume of 15 μl).
Positive controls are the reaction mixtures that contain no test substance; negative controls (blanks) are reaction mixtures that contain no kinase.
After 60 minutes, 10 μl Kinase-Glo® solution (Promega, Cat. #V6712) (heated to room temperature) were added to each well and incubation was continued for a further 15 minutes. The plates were read in a Microplate Scintillation and Luminescence Counter (Canberra Packard GmbH).
Data Evaluation and Calculation:
The output file of the “Counter” is a text file that contains the well number and measured counts in two columns. […] Based on this values the % inherent value for the measurement of each substance concentration was calculated using an “MS-Excel-VB macro”. […] The IC50 values were calculated from the % inhibition values using “GraphPadPrism” software (Version 5) (GraphPad Software Inc.).

Structure (SMILES)	IC50 [µM]
C[C@@H](Oc1cc(-c2ccccn2)cc2ncccc12)[C@H]1CNC(=O)C1 [Example 6, (R)-4-((R)-1-(7-(pyridin-2-yl)quinolin-5-yloxy)ethyl)pyrrolidin-2-one]	0.0017

Same assay, conditions: read-out: IC50-value (+0.2% HSA in μM); +0.2% HSA

Structure (SMILES)	IC50 [µM]
Cc1c(-c2cc(O[C@H](C)[C@H]3CNC(=O)C3)c3cccnc3c2)cnn1C [Example 112, (R)-4-((R)-1-(7-(1,5-dimethyl-1H-pyrazol-4-yl)quinolin-5-yloxy)ethyl)pyrrolidin-2-one]	0.0012
C[C@@H](Oc1cc(-c2ccc3c(c2)ncn3C)cc2ncccc12)[C@H]1CNC(=O)C1 [Example 94, (R)-4-((R)-1-(7-(1-methyl-1H-benzo[d]imidazol-5-yl)quinolin-5-yloxy)ethyl)pyrrolidin-2-one]	0.0003
Cc1nc2cc(-c3cc(O[C@H](C)[C@H]4CNC(=O)C4)c4cccnc4c3)ccc2[nH]1 [Example 109, (R)-4-((R)-1-(7-(2-methyl-1H-benzo[d]imidazol-5-yl)quinolin-5-yloxy)ethyl)pyrrolidin-2-one]	0.0004
Cc1nc2cc(-c3cc(O[C@H](C)[C@H]4CNC(=O)C4)c4cccnc4c3)ccc2n1C [Example 105, (R)-4-((R)-1-(7-(1,2-dimethyl-1H-benzo[d]imidazol-5-yl)quinolin-5-yloxy)ethyl)pyrrolidin-2-one]	0.0002
COc1cc(-c2cc(O[C@H](C)[C@H]3CNC(=O)C3)c3cccnc3c2)ccc1C(F)(F)F [Example 102, (R)-4-((R)-1-(7-(3-methoxy-4-(trifluoromethyl)phenyl)quinolin-5-yloxy)ethyl)pyrrolidin-2-one]	0.0045
C[C@@H](Oc1cc(-c2ccc3c(c2)CNCC3)cc2ncccc12)[C@H]1CNC(=O)C1 [Example 101, (R)-4-((R)-1-(7-(1,2,3,4-tetrahydroisoquinolin-7-yl)quinolin-5-yloxy)ethyl)pyrrolidin-2-one]	0.0004
Cc1nc2ccc(-c3cc(O[C@H](C)[C@H]4CNC(=O)C4)c4cccnc4c3)cc2s1 [Example 85, (R)-4-((R)-1-(7-(2-methylbenzo[d]thiazol-6-yl)quinolin-5-yloxy)ethyl)pyrrolidin-2-one]	0.0002
